Legend:
IBS patients = conditions: reported, cited from earlier work
[1] = tested on: 5-HTP induced diarrhea and/or abnormal defecation; test: 5-HTP induced diarrhea and/or abnormal defecation animal model; format: in vivo, Male ICR mice; conditions: for 5-HTP induced diarrhea (diarrhea score): FIG. 12A; for 5-HTP induced diarrhea (diarrhea score) / number of stools excreted: N=5 mice/group; for number of stools excreted: FIG. 12B, in 30 min; for anti-abnormal defecation effect / activity: purified compounds from Alpinia oxyphylla
Method: Animal Model for Evaluating 5-HTP Induced Diarrhea and/or Abnormal Defecation
Male ICR mice (BioLASCO Taiwan Co., Ltd., Taiwan) were kept in an air-conditioned animal shelter at room temperature of 22° C. to 24° C. with controlled level of humidity (40% to 50%) in a 12-hour light-dark cycle. Each mouse weighed between 30 to 34 g in the beginning of the test. Tap water and standard laboratory rodent chow were provided ad libitum.
[…], and each mice in the test group was given two doses of the Alpinia spp. extract of this invention (i.e., 500 mg/kg, 1,000 mg/kg, or 2,000 mg/kg) orally on day 1, and a third dose on day 2; and one dose of 5-HTP (i.p., 10 mg/kg) just 60 minutes after the administration of the third dose of the Alpinia spp. extract. In some occasions, the Alpinia spp. extracts of this invention were given intraperitoneally instead of orally. For comparison purpose, loperamide hydrochloride (oral; 2 mg/kg), ondansteron hydrochloride (oral; 2 mg/kg) or graniserton hydrochloride (oral; 2 mg/kg) were given once respectively to the control animals just 30 minutes prior to the administration of 5-HTP. Thirty minutes after 5-HTP injection, defecation of each animal was observed, with number of stools excreted for 30 min and diarrhea score respectively recorded accordingly. The diarrhea score was designed to describe consistency of stool using an arbitrary score scale from 0 to 3, with 0 representing solid form of stool, 1 representing loose form of stool, 2 representing partially liquid-like form of stool, and 3 representing watery form of stool.
(§1) All results are expressed as means±STD; n refers to animals in each group. Differences between animals of each group were compared by one-way
(§2) ANOVA followed by Dunnett's t test. A p value less than or equal to 0.05 was considered to be statistically significant.

[2] = tested on: 5-HTP induced visceral hypersensitivity (AWR); test: Visceral hypersensitivity by behavioral response, AWR score after 5-HTP; format: in vivo, Male Sprague-Dawley rats; conditions: for AWR score: body arching and lifting of pelvic structures / AWR score: lifting abdomen / AWR scores compared with control rats: 5-HTP rats; for anti-abdominal pain activity (or anti-visceral hypersensitivity): purified compounds from Alpinia oxyphylla
Method: Animal Model for Evaluating Chronic Visceral Hypersensitivity by Measuring […] Withdrawal Reflex (AWR)
In this model, behavioral response was studied by measuring the AWR, which is an involuntary motor reflex similar to visceromotor reflex. The AWR was graded with the intensity of stimulus.
Male Sprague-Dawley rats (BioLASCO Taiwan Co., Ltd., Taiwan) were kept in an air-conditioned animal shelter at room temperature of 22° C. to 24° C. with controlled level of humidity (40% to 50%) in a 12-hour light-dark cycle. Each rat weighed between 200 to 350 g in the beginning of the test. Tap water and standard laboratory rodent chow were provided ad libitum. Unless specifically indicated, each group included 6 rats, and experiments were conducted without fasting the animals. The plant extracts and positive control drugs were given to the animals either orally or intraperitoneally.
Behavioral studies were assessed in according to previously described procedures (AL-CHAER et al., Gastroenterology 2000, 119:1276-1285). Briefly, the rats were then housed in small Lucite cubicles (20×8×8 cm) on an elevated Plexiglas platform and allowed to wake up and adapt (1 hr). Animal was injected subcutaneously with a dose of 5-HTP (10 mg/kg) to induce visceral hypersensitivity, and behavioral response was studied by measuring the AWR. Measurement of the AWR consisted of visual observation of the animal response by blinded observers and assignments of an AWR score: 0, no behavioral response; 1, brief head movement followed by immobility; 2, mild contraction of abdominal muscles without lifting the abdomen off the platform; 3, strong contraction of the abdominal muscles and lifting abdomen off the platform; 4, severe contraction of the abdominal muscle manifested by body arching and lifting of pelvic structures. Behavioral measurements were repeated by two different blinded observers.
as §1, §2

In the case of `Cc1[nH]cnc1CN1CCc2c(c3ccccc3n2C)C1=O` [alosetron], the “IBS patients with improved clinical symptoms” value (IBS patients) is listed as “about 50%” and the “IBS patients with side effects such as constipation and ischemia colitis” value (IBS patients) is listed as 30-35%.
For `CC(C)[C@@H]1CCC(=O)C2=C1[C@H](O)[C@](C)(O)CC2` [PDC-2454, Oxyphellenodiol A], the “5-HTP induced diarrhea (diarrhea score)” value [1] was “capable of suppressing 5-HTP induced diarrhea”, the “number of stools excreted” value [1] was “reducing the number of stools excreted” and the “anti-abnormal defecation effect / activity” value [1] was “possess anti-abnormal defecation activity”.
For `C=C(C)[C@]1(O)CC[C@]2(C)CC(=O)C=C(C)[C@H]2C1` [PDC-2453, 7-epi-teucrenone], the “5-HTP induced diarrhea (diarrhea score)” value [1] was “capable of suppressing 5-HTP induced diarrhea”, the “number of stools excreted” value [1] was “reducing the number of stools excreted” and the “anti-abnormal defecation effect / activity” value [1] was “possess anti-abnormal defecation activity”.
With `COc1cc(O)c2c(=O)cc(-c3ccccc3)oc2c1` [PDC-2521, Tectochrysin] the “anti-abnormal defecation effect / activity” value [1] was “possess anti-abnormal defecation activity”.
In the case of `[H]/N=C(/NCCCCC)N/N=C/c1c[nH]c2ccc(OC)cc12` [tegaserod], the “therapeutic effects on IBS” value (IBS patients) is listed as “limited therapeutic effects on IBS” and the “risk of IBS patients in developing cardiovascular diseases” value (IBS patients; retracted from the market in 2007) is listed as “increases significantly”.
With `C=C(C)[C@@]1(O)CC[C@]2(C)CC(=O)C=C(C)[C@H]2C1` [PDC-2464, Teucrenone] the “5-HTP induced diarrhea (diarrhea score)” value [1] was “capable of suppressing 5-HTP induced diarrhea”, the “number of stools excreted” value [1] was “reducing the number of stools excreted” and the “anti-abnormal defecation effect / activity” value [1] was “possess anti-abnormal defecation activity”. The “AWR score: body arching and lifting of pelvic structures” value (shortened to “AWR score: body arching and lifting”) ([2]; 5 mg/kg i.p., Table 3) was 1.75 ± 0.16, the “AWR score: lifting abdomen” value ([2]; 5 mg/kg i.p., Table 3) was 1.60 ± 0.11 and the “AWR scores compared with control rats” value [2] was “significantly lower”. For the same compound, the “anti-abdominal pain activity (or anti-visceral hypersensitivity)” value [2] was “proved to possess anti-abdominal pain activity”.
In the case of `CN1C2CCCC1CC(NC(=O)c1nn(C)c3ccccc13)C2` (stereo not shown) [Granisetron, granisetron, reference compound], the “AWR score: body arching and lifting” value ([2]; 100 μg/kg i.p., n = 1, Table 1) was 1.90 and the “AWR score: lifting abdomen” value ([2]; 100 μg/kg i.p., n = 1, Table 1) was 2.80.
With `C=C(C)[C@@H]1CC[C@]2(C)CCC(=O)C(C)=C2[C@H]1O` [PDC-2460, 6-α-hydroxy-7-epi-α-cyperone] the “5-HTP induced diarrhea (diarrhea score)” value [1] was “capable of suppressing 5-HTP induced diarrhea”, the “number of stools excreted” value [1] was “reducing the number of stools excreted” and the “anti-abnormal defecation effect / activity” value [1] was “possess anti-abnormal defecation activity”.
With `COc1cc(O)c2c(=O)c(O)c(-c3ccccc3)oc2c1` [PDC-2524, Isalpinin] the “AWR score: body arching and lifting” value ([2]; 2.5 mg/kg i.p., Table 3) was 2.40 ± 0, the “AWR score: lifting abdomen” value ([2]; 2.5 mg/kg i.p., Table 3) was 2.27 ± 0.06 and the “AWR score: body arching and lifting” value ([2]; 5 mg/kg i.p., Table 3) was 2.10 ± 0. For the same compound, the “AWR score: lifting abdomen” value ([2]; 5 mg/kg i.p., Table 3) was 1.87 ± 0.06, the “AWR score: body arching and lifting” value ([2]; 10 mg/kg i.p., n = 1, Table 3) was 1.60 and the “AWR score: lifting abdomen” value ([2]; 10 mg/kg i.p., n = 1, Table 3) was 1.20. For the same compound, the “AWR scores compared with control rats” value [2] was “significantly lower” and the “anti-abdominal pain activity (or anti-visceral hypersensitivity)” value [2] was “proved to possess anti-abdominal pain activity”.
